The structures appear in SMILES notation. Entries after “also recorded” stand apart in the source; their conditions may differ.

Data set [1] can be described thus: Conversion of compounds in human plasma. As to conditions: for Observed metabolite, incubation in human plasma: 1 μM test compound, 37° C., 0-6 hours, nd: not detected. In kind it is in vitro ADME. How it is done: Frozen human plasma was thawed and then centrifuged at 3200×g for 5 minutes to remove debris. The pH value of the supernatant was then measured and adjusted to 7.4±0.1 by adding 1% phosphoric acid or 1 N sodium hydroxide. 2 μL of dosing solution (50 μM for test compounds and 100 μM for positive control (propantheline bromide)) was mixed with 98 μL of blank plasma to achieve 1 μM test compound and 2 μM positive control of final concentration. The mixture was incubated, and samples were withdrawn from the incubations at the pre-determined time points of 0, 0.5, 1, 2, 4 and 6 hours (in duplicate) at 37° C. in water bath. At each corresponding time point 10 μL inhibitor and 20 μL ascorbic acid and 2 μL formic acid (20%) are added, and then added 400 μL of “stop solution” (200 ng/mL tolbutamide plus 200 ng/mL labetalol in 50% ACN/MeOH) to precipitate protein. The substance was mixed thoroughly and thereafter centrifugated at 4,000 rpm for 20 minutes. Then an aliquot of supernatant (50 μL) was transferred from each well to a sample plate and mixed with 100 μL ultrapure water. The plate was shaked at 800 rpm for about 10 minutes before submitting to LC-MS/MS analysis.
(§1) Instrumentation Used for Analysis of Plasma and Hepatocyte Incubation Samples
(§2) Mass spectrometer (LC-MS/MS) Shimadzu LC 20-AD Shimadzu UHPLC API 4000. Analytical column ACQUITY UPLC® BEH Phenyl 1.7 μm 2.1×50 mm. Mobile phase A: 0.1% Formic Acid in Water. Mobile phase B: 0.1% Formic Acid in Acetonitrile. […] Flow rate 0.7 mL/min.

Data set [2] can be described thus: PK experiments in rats: plasma compound (I) after oral dosing of prodrug. In kind it is in vivo, Wistar rats. As to conditions: for Observed metabolite, in vivo PK study after oral dosing (rats): plasma. As to the method:
Plasma was placed on water-ice following collection. Final storage at approximately −70° C.
Mobile phase B: Acetonitrile. […] Flow rate 0.5 mL/min.
The rats had unrestricted access to the diet.
Mobile phase B: Acetonitrile+0.2% formic acid. […] Flow rate 0.3 mL/min.
Dosing and blood sampling: Han Wistar rats were supplied by Envigo, UK. […] The rats received a standard laboratory diet Teklad 2014C. The rats had unrestricted access to the diet. […] Rats were given […] (Ic), 487 ag/kg compound (7), 487 ag/kg Compound (4), 674 ag/kg compound (9), 359 ag/kg A6 and 551 ag/kg A2.

In data set [3] the target is T1, human 5-HT2B receptor (Homo sapiens, UniProt P41595).
T1 construct: host or cells: CHO cells (membrane homogenates)
T1 sequence (P41595 whole entry): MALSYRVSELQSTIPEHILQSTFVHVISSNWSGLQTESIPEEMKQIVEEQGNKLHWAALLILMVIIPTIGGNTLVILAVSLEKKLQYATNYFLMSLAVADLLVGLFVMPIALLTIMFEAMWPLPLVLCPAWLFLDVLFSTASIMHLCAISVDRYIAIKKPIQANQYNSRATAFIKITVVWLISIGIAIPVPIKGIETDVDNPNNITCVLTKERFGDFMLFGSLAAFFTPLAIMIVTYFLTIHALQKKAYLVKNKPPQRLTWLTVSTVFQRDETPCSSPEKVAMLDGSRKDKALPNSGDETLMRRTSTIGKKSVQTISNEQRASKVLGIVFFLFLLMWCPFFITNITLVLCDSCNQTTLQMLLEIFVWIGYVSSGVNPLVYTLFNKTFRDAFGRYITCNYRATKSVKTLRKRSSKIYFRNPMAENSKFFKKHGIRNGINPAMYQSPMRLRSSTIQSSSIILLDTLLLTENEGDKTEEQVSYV
Nature of the data set: 5-HT2B radioligand binding assay ([125I](±)DOI, CHO cell membranes). Conditions: read-out: 5-HT2B % @ 10 μM (binding affinity, % inhibition of control specific binding). As to the method: Evaluation of the affinity of compounds for the human 5-HT2B receptor was determined in a radioligand binding assay at Eurofins/Cerep (France). Membrane homogenates prepared from CHO cells expressing the human 5HT2B receptor were incubated for 60 minutes at room temperature with 0.2 nM [1251](±)DOI (1-(4-iodo-2, 5-dimethoxyphenyl)propan-2-amine) in the absence or presence of the test compound in a buffer containing 50 mM Tris-HCl (pH 7.4), 5 mM MgCl2, 10 μM pargyline and 0.1% ascorbic acid. Nonspecific binding is determined in the presence of 1 μM (±)DOI. Following incubation, the samples were filtered rapidly under vacuum through glass fiber filters (GF/B, Packard) presoaked with 0.3% polyethyleneimine (PEI) and rinsed several times with ice-cold 50 mM Tris-HCl using a 96-sample cell harvester (Unifilter, Packard). The filters were dried and counted for radioactivity in a scintillation counter (Topcount, Packard) using a scintillation cocktail (Microscint 0, Packard). The results are expressed as a percent inhibition of the control radioligand specific binding. The standard reference compound was (±)DOI, which was tested in each experiment at several concentrations to obtain a competition curve from which its IC50 is calculated.

Data set [4] concerns human hepatocytes. Description: Conversion of compounds in human hepatocytes. Format: in vitro ADME. Conditions: 1 μM compound, 37° C.; nd: not detected. As to the method:
Incubations were conducted in 96-well plates at 1 μM compound concentration in duplicate. The hepatocyte cell concentration was 0.5×10^6 cells/mL used for final incubation at 37° C. in an incubator of 5% CO2 95% relative humidity. The medium control samples were included at 0 and 60 minutes in the absence of cells. The total organic concentration was 1% (DMSO 0.1%) in the final incubation. The controls, (7-ethoxycoumarin and 7-hydroxycoumarin) was incubated parallel at […]. 2 μL of dosing solution (50 μM for test compounds and 100 μM for positive control) was mixed with 98 μL of 100 mM PBS to achieve 1 μM test compound and 2 μM positive control of final concentration. The mixture was incubated, and samples were withdrawn from the incubations at pre-determined time points of 0, 0.5, 1, 2, 4 and 6 hour (in duplicate) at 37° C. in water bath. To each sample, 10 μL inhibitor and 20 μL ascorbic acid and 2 μL formic acid (20%) were added followed by 400 μL of stop solution (200 ng/mL tolbutamide plus 200 ng/mL labetalol in 50% ACN/MeOH). The substance was mixed thoroughly and thereafter centrifuged at 4,000 rpm for 20 minutes. An aliquot of supernatant (50 μL) from each well were transferred to a sample plate and mixed with 100 μL ultrapure water. The plate was shaked at 800 rpm for about 10 minutes before submitting to LC-MS/MS analysis.
as §1, §2

Consider `CCCN1CCC[C@@H]2Cc3c(ccc(O)c3O)C[C@H]21` [(I), (4aR,10aR)-1-Propyl-1,2,3,4,4a,5,10,10a-octahydro-benzo[g]quinoline-6,7-diol, reference compound], for which, in data set [1] (human plasma incubation), the “half-life in the plasma assay” value was “short half-life”.

Usually inhibition stands for the relative decrease from the control value, in per cent. Turning to `CCCN1CCC[C@@H]2Cc3c(ccc(OC(=O)C(C)(C)C)c3OC(=O)C(C)(C)C)C[C@H]21` [(Ic), reference compound], in data set [2] (Wistar rats, oral), the “plasma concentrations of compound (I) after oral dosing (in words)” value was “extremely low”. Moreover, in data set [3], the inhibition at 10 µM is -5%.

For `CCCN1CCC[C@@H]2Cc3c(ccc(O)c3O[C@@H]3O[C@H](COC(C)=O)[C@@H](OC(C)=O)[C@H](OC(C)=O)[C@H]3OC(C)=O)C[C@H]21` [Compound (2), (2R,3R,4S,5R,6S)-2-(acetoxymethyl)-6-(((4aR,10aR)-7-hydroxy-1-propyl-1,2,3,4,4a,5,10,10a-octahydrobenzo[g]quinolin-6-yl)oxy)tetrahydro-2H-pyran-3,4,5-triyl triacetate], the inhibition at 10 µM in data set [3] was -6%. The results for the “Observed metabolite, incubation in human plasma” value in data set [1] and in data set [1] (listed as compound (2)) were “Glucuronide” and “glucuronide derivative”, respectively.

As to `CCCN1CCC[C@@H]2Cc3c(ccc(OC(C)=O)c3O[C@@H]3O[C@H](COC(C)=O)[C@@H](OC(C)=O)[C@H](OC(C)=O)[C@H]3OC(C)=O)C[C@H]21` [Compound (3), (2S,3R,4S,5R,6R)-2-(((4aR,10aR)-7-acetoxy-1-propyl-1,2,3,4,4a,5,10,10a-octahydrobenzo[g]quinolin-6-yl)oxy)-6-(acetoxymethyl)tetrahydro-2H-pyran-3,4,5-triyl triacetate], the “Observed metabolite, incubation in human hepatocytes” value in data set [4] is recorded as “Compound (4)”. Besides, in data set [3], the inhibition at 10 µM is 18%.

`CCCN1CCC[C@@H]2Cc3c(ccc(O)c3O[C@@H]3O[C@H](CO)[C@@H](O)[C@H](O)[C@H]3O)C[C@H]21` [Compound (4), (2S,3R,4S,5S,6R)-2-(((4aR,10aR)-7-hydroxy-1-propyl-1,2,3,4,4a,5,10,10a-octahydrobenzo[g]quinolin-6-yl)oxy)-6-(hydroxymethyl)tetrahydro-2H-pyran-3,4,5-triol]: the “Observed metabolite, in vivo PK study after oral dosing (rats)” value (from here on “Observed metabolite, in vivo PK study”) in data set [2] is “Compound (I)”; in data set [2] (listed as compound (4)), “showed conversion in vivo”. The “Observed metabolite, incubation in human hepatocytes” value in data set [4] was “Compound (I)”. Besides, the inhibition at 10 µM in data set [3] is 0%.

Regarding `CCCN1CCC[C@@H]2Cc3c(ccc(O[C@@H]4O[C@H](COC(C)=O)[C@@H](OC(C)=O)[C@H](OC(C)=O)[C@H]4OC(C)=O)c3O)C[C@H]21` [Compound (5), (2R,3R,4S,5R,6S)-2-(acetoxymethyl)-6-(((4aR,10aR)-6-hydroxy-1-propyl-1,2,3,4,4a,5,10,10a-octahydrobenzo[g]quinolin-7-yl)oxy)tetrahydro-2H-pyran-3,4,5-triyl triacetate], the “Observed metabolite, incubation in human hepatocytes” value in data set [4] was “Compound (7)”. Further, in data set [3], the inhibition at 10 µM amounted to 9%. For the same compound, the “Observed metabolite, incubation in human plasma” value in data set [1] is listed as “Compound (7)”.

Regarding `CCCN1CCC[C@@H]2Cc3c(ccc(O[C@@H]4O[C@H](COC(C)=O)[C@@H](OC(C)=O)[C@H](OC(C)=O)[C@H]4OC(C)=O)c3OC(C)=O)C[C@H]21` [Compound (6), (2S,3R,4S,5R,6R)-2-(((4aR,10aR)-6-acetoxy-1-propyl-1,2,3,4,4a,5,10,10a-octahydrobenzo[g]quinolin-7-yl)oxy)-6-(acetoxymethyl)tetrahydro-2H-pyran-3,4,5-triyl triacetate], the “Observed metabolite, incubation in human hepatocytes” value in data set [4] is on record as “Compound (7); also recorded: Compound (5)”. Moreover, the inhibition at 10 µM in data set [3] was -5%. The “Observed metabolite, incubation in human plasma” value in data set [1] is reported as “Compound (7); also recorded: Compound (5)”.

Consider `CCCN1CCC[C@@H]2Cc3c(ccc(O[C@@H]4O[C@H](CO)[C@@H](O)[C@H](O)[C@H]4O)c3O)C[C@H]21` [Compound (7), (2S,3R,4S,5S,6R)-2-(((4aR,10aR)-6-hydroxy-1-propyl-1,2,3,4,4a,5,10,10a-octahydrobenzo[g]quinolin-7-yl)oxy)-6-(hydroxymethyl)tetrahydro-2H-pyran-3,4,5-triol], for which the inhibition at 10 µM in data set [3] amounted to 7%.

For the compound `CCCN1CCC[C@@H]2Cc3c(ccc(O[C@@H]4O[C@H](COC(C)=O)[C@@H](OC(C)=O)[C@H](OC(C)=O)[C@H]4OC(C)=O)c3O[C@@H]3O[C@H](COC(C)=O)[C@@H](OC(C)=O)[C@H](OC(C)=O)[C@H]3OC(C)=O)C[C@H]21` [Compound (8), [(2R,3R,4S,5R,6S)-6-[[(4aR,10aR)-1-propyl-6-[(2S,3R,4S,5R,6R)-3,4,5-triacetoxy-6-(acetoxymethyl)tetrahydropyran-2-yl]oxy-3,4,4a,5,10,10a-hexahydro-2H-benzo[g]quinolin-7-yl]oxy]-3,4,5-triacetoxy-tetrahydropyran-2-yl]methyl acetate], the inhibition at 10 µM in data set [3] was -12%.

`CCCN1CCC[C@@H]2Cc3c(ccc(O[C@@H]4O[C@H](CO)[C@@H](O)[C@H](O)[C@H]4O)c3O[C@@H]3O[C@H](CO)[C@@H](O)[C@H](O)[C@H]3O)C[C@H]21` [Compound (9), (2R,2′R,3S,3′S,4S,4′S,5R,5′R,6S,6′S)-6,6′-(((4aR,10aR)-1-propyl-1,2,3,4,4a,5,10,10a-octahydrobenzo[g]quinoline-6,7-diyl)bis(oxy))bis(2-(hydroxymethyl)tetrahydro-2H-pyran-3,4,5-triol)]: in data set [2], the “Observed metabolite, in vivo PK study” value is given as “Compound (I)”. For the same compound, in data set [4], the “Observed metabolite, incubation in human hepatocytes” value is “Compound (4); also recorded: Compound (7)”. For the same compound, the inhibition at 10 µM in data set [3] is -5%. In addition, the “Observed metabolite, incubation in human plasma” value in data set [1] is reported as “Compound (7)”.

For the compound `CCCN1CCC[C@@H]2Cc3c(ccc(OCc4ccccc4)c3O)C[C@H]21` [Compound A2, (4aR,10aR)-7-(benzyloxy)-1-propyl-1,2,3,4,4a,5,10,10a-octahydrobenzo[g]quinolin-6-ol], in data set [2], the “Observed metabolite, in vivo PK study” value was “Compound (I)”. In addition, the “Observed metabolite, incubation in human hepatocytes” value in data set [4] is recorded as “Compound (I)”. For the same compound, in data set [3], the inhibition at 10 µM came out at 30%. The “Observed metabolite, incubation in human plasma” value in data set [1] is “Compound (I)”.

On to `CCCN1CCC[C@@H]2Cc3c(ccc(OC)c3O)C[C@H]21` [Compound A6, (4aR,10aR)-7-methoxy-1-propyl-1,2,3,4,4a,5,10,10a-octahydrobenzo[g]quinolin-6-ol], for which, in data set [2], the “Observed metabolite, in vivo PK study” value is listed as “Compound (I)”. In data set [4], the “Observed metabolite, incubation in human hepatocytes” value is “Compound (I)”. In data set [3], the inhibition at 10 µM was 24%.

The record behind these values is patent US12319710B2, “Catecholamine prodrugs for use in the treatment of Parkinson's diseases” (H. Lundbeck A/S, priority 2019, dated 2025).
